pIC50: −log10 of the molar value.
Tests used:
Nanog = experiment: immunofluorescence staining of SW480 xenograft tissue, Nanog; type: in vivo, human; conditions: nude mice, oral daily, 14 doses, Compound A 100 mg/kg, Compound B 50 mg/kg, FIG. 6B
Protocol: (§1) The effect of a treatment combination of Compound A and Compound B on the levels of various pharmacodynamic (PD) markers for the agents in vivo was studied. A mouse xenograft model of human colon cancer (SW480) was used.
(§2) Levels of STK33 and Nanog were examined using immunofluorescence staining of the xenograft tissue. Female nude mice were inoculated subcutaneously with 8×10^6 human SW480 colon cancer cells. Animals were treated orally daily with vehicle, Compound A (100 mg/kg), Compound B (50 mg/kg), or Compound A and Compound B (100 mg/kg and 50 mg/kg, respectively) for a total of 14 doses. At the end of treatment, the tumors were harvested from euthanized mice. Part of the dissected tumors were fixed overnight in 3.7% neutral buffered formaldehyde at 4° C., and then paraffin embedded, cut to four micron sections, and affixed onto positively charged slides. After being baked and deparaffinized, the slides with tumor or control tissues were incubated in 10mM pH6.0 sodium citrate solution for antigen retrieval at 98° C. […] After being mounted with ProLong mounting medium containing DAPI (Invitrogen), the slides were examined on a Zeiss Axis Imager M2 upright fluorescence microscope with a 20× objective and analyzed with Zen software.

STK33 = molecular target: T1, STK33 (Homo sapiens, UniProt Q9BYT3); experiment: immunofluorescence staining of SW480 xenograft tissue, STK33; type: in vivo; conditions: nude mice, oral daily, 14 doses, Compound A 100 mg/kg, Compound B 50 mg/kg, FIG. 6B
T1 construct: from tissue; host or cells: human SW480 colon cancer xenograft tumours grown in female nude mice
Protocol: as §1, §2

p-STAT3 = molecular target: T2, p-STAT3 (Homo sapiens, UniProt P40763); experiment: immunofluorescence staining of SW480 xenograft tissue, p-STAT3; type: in vivo; conditions: nude mice, oral daily, 14 doses, Compound A 100 mg/kg, Compound B 50 mg/kg, FIG. 6A
T2 construct: from tissue; host or cells: human SW480 colon cancer xenograft tumours grown in female nude mice

STAT3 pathway = conditions: according to U.S. Pat. No. 8,877,803; read-out: STAT3 pathway activity, cellular IC50; cited from earlier work

T1 sequence (Q9BYT3 whole entry): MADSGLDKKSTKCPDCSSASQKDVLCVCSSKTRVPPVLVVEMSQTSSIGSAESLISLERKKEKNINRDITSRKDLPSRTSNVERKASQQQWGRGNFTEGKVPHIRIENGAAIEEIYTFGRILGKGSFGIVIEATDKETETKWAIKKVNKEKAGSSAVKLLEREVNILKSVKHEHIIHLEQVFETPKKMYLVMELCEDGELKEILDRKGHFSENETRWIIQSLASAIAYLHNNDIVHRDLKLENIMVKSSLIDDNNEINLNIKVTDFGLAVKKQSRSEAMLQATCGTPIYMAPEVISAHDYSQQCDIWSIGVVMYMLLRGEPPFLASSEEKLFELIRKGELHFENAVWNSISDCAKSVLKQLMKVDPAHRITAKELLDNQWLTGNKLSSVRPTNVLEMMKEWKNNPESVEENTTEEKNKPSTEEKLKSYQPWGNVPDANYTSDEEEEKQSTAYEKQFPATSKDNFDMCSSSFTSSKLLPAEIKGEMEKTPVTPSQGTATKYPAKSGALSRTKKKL
T2 sequence (P40763 whole entry): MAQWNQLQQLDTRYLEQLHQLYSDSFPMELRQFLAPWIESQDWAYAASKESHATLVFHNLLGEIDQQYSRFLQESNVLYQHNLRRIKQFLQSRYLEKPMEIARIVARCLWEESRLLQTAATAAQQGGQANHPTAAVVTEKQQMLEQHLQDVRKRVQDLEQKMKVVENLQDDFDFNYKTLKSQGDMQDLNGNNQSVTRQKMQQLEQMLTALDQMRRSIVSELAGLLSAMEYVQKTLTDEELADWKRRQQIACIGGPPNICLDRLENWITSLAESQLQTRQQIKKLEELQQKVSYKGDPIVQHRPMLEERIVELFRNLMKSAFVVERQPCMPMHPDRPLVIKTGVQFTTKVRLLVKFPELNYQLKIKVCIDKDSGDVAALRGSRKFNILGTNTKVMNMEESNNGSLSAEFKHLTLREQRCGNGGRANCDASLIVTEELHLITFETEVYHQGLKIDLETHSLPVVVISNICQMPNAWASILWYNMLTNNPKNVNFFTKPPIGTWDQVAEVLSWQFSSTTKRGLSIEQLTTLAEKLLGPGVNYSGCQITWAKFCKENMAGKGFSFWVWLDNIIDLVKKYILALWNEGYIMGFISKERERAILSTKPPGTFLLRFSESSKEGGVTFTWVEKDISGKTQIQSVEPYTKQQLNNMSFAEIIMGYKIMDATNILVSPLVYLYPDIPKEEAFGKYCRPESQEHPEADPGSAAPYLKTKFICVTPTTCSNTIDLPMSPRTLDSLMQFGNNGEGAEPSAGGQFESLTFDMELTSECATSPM

| nuclear levels of STK33 in xenograft tissue (STK33) | cytoplasmic levels of STK33 in xenograft tissue (STK33) | cellular levels of p-STAT3 in xenograft tissue (p-STAT3) | Structure (SMILES) | nuclear levels of Nanog in xenograft tissue (Nanog) | cytoplasmic levels of Nanog in xenograft tissue (Nanog) | pIC50 (STAT3 pathway) |
| --- | --- | --- | --- | --- | --- | --- |
| reduced |  |  | CCN(CC)CCNC(=O)c1c(C)[nH]c(/C=C2\C(=O)Nc3ccc(-c4csc(-c5ccccc5)n4)cc32)c1C [Compound B] | reduced |  |  |
|  | reduced | significantly reduced | CC(=O)c1cc2c(o1)C(=O)c1ccccc1C2=O [Compound A, 2-acetylnaphtho[2,3-b]furan-4,9-dione] |  | reduced | ~6.60 |

From patent US20180250261A1, “METHOD FOR TREATING CANCER WITH A STAT3 PATHWAY INHIBITOR AND KINASE INHIBITOR” (BOSTON BIOMEDICAL, INC., priority 2015, published 2018)
